Experimental findings from PMC10797637 (Journal of natural products, 2023) are described below.

Molecules are shown by their SMILES.

The EC50 is the concentration that produces a half-maximal response.

In one experiment the test system is P. falciparum Dd2. In words: Plasmodium falciparum SYBR Green I assay. In kind it is cell-based. The note with it: relative to HepG2 cytotoxicity.
For the compound `COC(=O)[C@]12Oc3cc4c(c(O)c3C(=O)C1=C(O)CC[C@@H]2O)[C@@H]1C=C[C@@]2(C4)C(=O)c3cc(C)cc(O)c3C(O)=C2C1=O` [compound 8, xanthoquinodin A2], the “P. falciparum SI” value is greater than 50.

A further experiment has as its system HepG2 human hepatocytes. Kind of experiment: Human cell cytotoxicity assay. In kind it is cell-based. The note with it: HepG2, read-out: HepG2 EC50.
For `COC(=O)[C@]1([C@@H](O)CCC(=O)O)CC(=O)c2c(cc3c(c2O)[C@@H]2C=C[C@@]4(C3)C(=O)c3cc(C)cc(O)c3C(O)=C4C2=O)O1` [compound 3, xanthoquinodin NPDG A3], the EC50 is greater than 25 µM.

With `COC(=O)[C@]1([C@@H]2CCC(=O)O2)CC(=O)c2c(O)cc(C)cc2O1` [compound 12, gonytolide C], the EC50 is greater than 25 µM.

Take `COC(=O)[C@@]12Oc3cc4c(c(O)c3C(=O)C1=C(O)CC[C@@H]2O)[C@@H]1C=C[C@@]2(C4)C(=O)c3cc(C)cc(O)c3C(O)=C2C1=O` [compound 7, xanthoquinodin A1]: the concentration giving a half-maximal response (EC50) is greater than 25 µM.

Turning to `COC(=O)[C@]12Oc3cc4c(c(O)c3C(=O)C1=C(O)CC[C@@H]2O)[C@@H]1C=C[C@@]2(C4)C(=O)c3cc(C)cc(O)c3C(O)=C2C1=O` [compound 8, xanthoquinodin A2], the concentration for a half-maximal effect (EC50) was greater than 25 µM.

Consider `COC(=O)[C@@]12Oc3cc4c(c(O)c3C(=O)C1=C(O)CC[C@@H]2O)[C@@H]1C=C[C@@]2(C4)C(=O)c3cc(C)cc(O)c3C(=O)[C@]2(O)C1=O` [compound 1, xanthoquinodin NPDG A1], for which the EC50 is greater than 25 µM.

For the compound `COC(=O)[C@]1([C@@H]2CCC(=O)O2)CC(=O)c2c(cc3c(c2O)[C@@H]2C=C[C@@]4(C3)C(=O)c3cc(C)cc(O)c3C(O)=C4C2=O)O1` [compound 9, xanthoquinodin A3], the EC50 is greater than 25 µM.

On to `COC(=O)[C@]1([C@@H]2CCC(=O)O2)CC(=O)c2c(cc3c(c2O)[C@@H]2C=C[C@@]4(C3)C(=O)c3cc(C)cc(O)c3C(=O)[C@]4(O)C2=O)O1` [compound 5, Xanthoquinodin NPDG A5], for which the half-maximal effective concentration (EC50) was greater than 25 µM.

Regarding `COC(=O)[C@]1([C@@H](O)CCC(=O)O)CC(=O)c2c(cc3c(c2O)[C@@H]2C=C[C@@]4(C3)C(=O)c3cc(C)cc(O)c3C(=O)[C@]4(O)C2=O)O1` [compound 4, Xanthoquinodin NPDG A4], the EC50 is greater than 25 µM.

For `COC(=O)[C@]12Oc3c(c(O)cc4c3[C@@H]3C=C[C@@]5(C4)C(=O)c4cc(C)cc(O)c4C(=O)[C@]5(O)C3=O)C(=O)C1=C(O)CC[C@@H]2O` [compound 6, xanthoquinodin NPDG B1], the half-maximal effective concentration (EC50) was greater than 25 µM.
